We go through 24 compounds from ChEMBL document CHEMBL1799913, “A combined spectroscopic and crystallographic approach to probing drug-human serum albumin interactions” (Bioorg Med Chem, 2010).

In data set [1] the target is T1, human serum albumin site 2 (Homo sapiens, UniProt P02768). Kind of data set: in vitro. As to conditions: fatty acid-free human serum albumin, pH 7.4, probe dansylsarcosine.
Description: Displacement of radiolabeled dansylsarcosine from fatty acid-free human serum albumin site 2 in phosphate buffer at pH 7.4 at 12 uM by fluorescence spectroscopy
The target of data set [2] is T1, human serum albumin site 2. The experiment in a line: in vitro. As to conditions: fatty acid containing human serum albumin, pH 7.4, probe dansylsarcosine.
Description: Displacement of radiolabeled dansylsarcosine from fatty acid containing human serum albumin site 2 in phosphate buffer at pH 7.4 at 12 uM by fluorescence spectroscopy
Data set [3] deals with T2, human serum albumin site 1 (Homo sapiens, UniProt P02768). Kind of data set: in vitro. As to conditions: fatty acid-free human serum albumin, pH 7.4, probe warfarin.
Description: Displacement of radiolabeled warfarin from fatty acid-free human serum albumin site 1 in phosphate buffer at pH 7.4 at 12 uM by fluorescence spectroscopy
Data set [4] deals with T2, human serum albumin site 1. The experiment in a line: in vitro. As to conditions: fatty acid containing human serum albumin, pH 7.4, probe warfarin.
Description: Displacement of radiolabeled warfarin from fatty acid containing human serum albumin site 1 in phosphate buffer at pH 7.4 at 12 uM by fluorescence spectroscopy
The target of data set [5] is T3, Albumin (Homo sapiens, UniProt P02768). The experiment in a line: Binding affinity to human serum albumin by equilibrium dialysis. Type of data set: ADME. As to conditions: isolated protein. (Equilibrium dialysis compares concentrations on both sides of a semipermeable membrane.)
A further data set is described as follows: physchem. As to conditions: phosphate buffer, pH 7.4.
Data set [6] addresses T3, Albumin. As to conditions: isolated protein.
Description: Binding affinity to fatty acid-free human serum albumin by equilibrium dialysis
Data set [7] can be described thus: Octanol-buffer partition coefficient, log D of the compound at pH 7.4 by shake-flask method.
Data set [8] can be described thus: Lipophilicity, log P of the compound in octanol.
The target in data set [9] is T3, Albumin. As to conditions: isolated protein. This is another data set of the same source.
Description: Binding affinity to fatty acid-containing human serum albumin by equilibrium dialysis
A short description of data set [10]: Dissociation constant, pKa of the compound by spectrophotometric titration. Type of data set: physicochemical.
The target of data set [11] is T2, human serum albumin site 1. The experiment in a line: Displacement of […] warfarin from human serum albumin site 1 in phosphate buffer at pH 7.4 at 4 uM by fluorescence spectroscopy. As to conditions: pH 7.4, probe warfarin, read-out: Activity.
Data set [12] concerns the target T1, human serum albumin site 2. Kind of data set: Displacement of […] dansylsarcosine from human serum albumin site 2 in phosphate buffer at pH 7.4 at 4 uM by fluorescence spectroscopy. As to conditions: pH 7.4, probe dansylsarcosine, read-out: Activity.
Data set [13] deals with T2, human serum albumin site 1. Kind of data set: in vitro. As to conditions: pH 7.4, probe warfarin.
Description: Displacement of radiolabeled warfarin from human serum albumin site 1 in phosphate buffer at pH 7.4 at 100 uM by fluorescence spectroscopy
Data set [14] addresses T1, human serum albumin site 2. Kind of data set: in vitro. As to conditions: pH 7.4, probe dansylsarcosine.
Description: Displacement of radiolabeled dansylsarcosine from human serum albumin site 2 in phosphate buffer at pH 7.4 at 100 uM by fluorescence spectroscopy

A word on the solubility: it is the concentration that dissolves in the medium under given conditions. The term logD denotes the decadic logarithm of the distribution of all forms, ionised or not, between an organic phase and buffer at a given pH. Higher therefore signals a more lipophilic compound. By logP is commonly meant the decadic logarithm of the partition coefficient of the neutral form, usually between octanol and water. Usually pKa stands for the negative logarithm of the acid dissociation constant. A high value points to a group that holds its proton tightly.

Converted amounts (≈) assume the structure as drawn.

T1 sequence (P02768 whole entry): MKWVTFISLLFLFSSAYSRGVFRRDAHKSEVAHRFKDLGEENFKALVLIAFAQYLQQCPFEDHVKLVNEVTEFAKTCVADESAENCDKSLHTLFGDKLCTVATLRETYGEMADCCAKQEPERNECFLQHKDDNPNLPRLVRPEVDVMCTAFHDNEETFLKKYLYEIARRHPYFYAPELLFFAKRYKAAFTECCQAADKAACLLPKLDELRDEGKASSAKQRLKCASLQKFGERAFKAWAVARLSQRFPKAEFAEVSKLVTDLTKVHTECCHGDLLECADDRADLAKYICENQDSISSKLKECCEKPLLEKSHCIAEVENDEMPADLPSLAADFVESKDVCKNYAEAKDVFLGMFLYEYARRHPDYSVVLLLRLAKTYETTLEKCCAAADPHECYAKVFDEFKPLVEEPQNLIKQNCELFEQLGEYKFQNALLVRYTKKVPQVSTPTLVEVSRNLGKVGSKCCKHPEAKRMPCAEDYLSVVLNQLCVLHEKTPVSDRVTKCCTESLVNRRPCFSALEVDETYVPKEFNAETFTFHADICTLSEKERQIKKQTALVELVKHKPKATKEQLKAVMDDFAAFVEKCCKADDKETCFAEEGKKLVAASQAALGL
T3 sequence (P02768 whole entry): as above
T2 sequence (P02768 whole entry): as above
Description for physchem: Aqueous solubility of the compound in phosphate buffer solution of pH 7.4 after 24 hrs by LC-UV analysis

On to `O=C1NC(=O)C(c2ccccc2)(c2ccccc2)N1` [PHENYTOIN], for which the inhibition at 12 µM in data set [1] was 0%; in data set [2], 18.8%; in [3], 4%; in data set [4] it was 9.3%.

Turning to `O=c1oc2ccccc2c(O)c1Cc1c(O)c2ccccc2oc1=O` [DICUMAROL], the inhibition at 12 µM was determined as 88.8% in data set [1], 19.8% in [2], 86.4% in data set [3] and 10.5% in [4].

For `NS(=O)(=O)c1cc(C(=O)O)c(NCc2ccco2)cc1Cl` [FUROSEMIDE], the inhibition at 12 µM in [1] came out at 19.2%; in data set [2], 49%; in data set [3], 36.2%; in [4], 47.3%.

Turning to `CN1C(C(=O)Nc2ccccn2)=C(O)c2ccccc2S1(=O)=O` [PIROXICAM], the inhibition at 12 µM in data set [1] worked out at 45.5%; in data set [2], 44.8%; in [3], 6.7%; in data set [4], 53.5%.

On to `CC/C(=C(\c1ccccc1)c1ccc(OCCN(C)C)cc1)c1ccccc1` [TAMOXIFEN], for which the inhibition at 12 µM in [1] was 16.3%; in data set [2] it was 62.2%; in data set [3], 0%; in data set [4] it was 0%.

Take `Cc1cc(NC(=O)C2=C(O)c3ccccc3S(=O)(=O)N2C)no1` [ISOXICAM]: the inhibition at 12 µM in data set [1] worked out at 33.1%; in data set [2], 32.6%; in [3], 51.7%; in data set [4], 38%.

Take `COc1ccc2cc([C@H](C)C(=O)O)ccc2c1` [NAPROXEN]: the inhibition at 12 µM is 91.3% in data set [1], 79.9% in [2], 24.7% in data set [3] and 38.8% in data set [4].

For the compound `CN1C(C(=O)Nc2ccccn2)=C(O)c2sccc2S1(=O)=O` [TENOXICAM], the inhibition at 12 µM in data set [1] worked out at 27.4%; in data set [2], 38.5%; in [3] it was 52.3%; in [4] it was 61.7%.

In the case of `CCN(CC)CCN1C(=O)CN=C(c2ccccc2F)c2cc(Cl)ccc21` [FLURAZEPAM], the “log Ks” value on Albumin [5] turned out to be 3.38. Besides, the inhibition at 12 µM in data set [1] came to 4.3%; in [2], 2.7%; in data set [3], 0%; in data set [4], 6.3%.

For `Cc1onc(-c2ccccc2Cl)c1C(=O)N[C@@H]1C(=O)N2[C@@H]1SC(C)(C)[C@@H]2C(=O)O` [CLOXACILLIN], the inhibition at 12 µM in data set [1] came to 24.1%; in [2], 18.1%; in [3], 0%; in data set [4], 5.7%.

On to `N[C@@H](Cc1c[nH]c2ccccc12)C(=O)O` [TRYPTOPHAN], for which the inhibition at 12 µM turned out to be 15.3% in data set [1], 15.1% in [2], 0% in data set [3] and 0% in [4].

For `O=C(O)CCC(=O)c1ccc(-c2ccccc2)cc1` [FENBUFEN], the inhibition at 12 µM in [1] came to 70%; in data set [2], 66.2%; in [3], 0%; in [4] it was 0%.

`O=C(O)C[C@@H]1c2ccccc2C[C@H]1NC(=O)c1cc2cc(F)ccc2[nH]1` returned a solubility at 24 h in the data set “physchem” of 1930 µM (≈ 680 µg/mL). In addition, the “log Ks” value at Albumin [6] worked out at 5.97; on Albumin [9], 6.11. The compound also came in with a logD in data set [7] of 1.26. Moreover, in data set [8], the logP turned out to be 4.71. Also, in data set [10], the pKa was 3.95.

Turning to `COc1ccc(Cl)cc1C(=O)NCCc1ccc(S(=O)(=O)NC(=O)NC2CCCCC2)cc1` [GLYBURIDE], in the data set “physchem”, the concentration in solution (solubility at 24 h) was 11 µM (≈ 5.43 µg/mL). Moreover, the inhibition at 12 µM in [1] is 33.9%; in data set [2] it was 62.2%; in [3], 28.6%; in [4], 50.7%.

Consider `CC(C)NCC(O)COc1cccc2[nH]ccc12` (stereo not given) [PINDOLOL], for which the “log Ks” value at Albumin [5] came out at 2.65. For the same compound, the inhibition at 12 µM turned out to be 0.2% in [1], 9.5% in data set [2], 0% in data set [3] and 0% in [4].

As for `O=C1C(CC[S+]([O-])c2ccccc2)C(=O)N(c2ccccc2)N1c1ccccc1` (stereo not given) [SULFINPYRAZONE], the inhibition at 12 µM in [1] was 18.6%; in data set [2], 34.2%; in [3] it was 35.2%; in data set [4], 44.1%.

Turning to `O=C1CN=C(c2ccccc2Cl)c2cc([N+](=O)[O-])ccc2N1` [CLONAZEPAM], the inhibition at 12 µM in data set [1] amounted to 16.2%; in data set [2] it was 19.5%; in [3], 0%; in [4], 3.8%.

On to `O=C(O)CCC[C@@H]1c2ccccc2C[C@H]1NC(=O)c1cc2cc(F)ccc2[nH]1`, for which the solubility at 24 h in the data set “physchem” turned out to be 86 µM (≈ 32.7 µg/mL). Moreover, the “log Ks” value on Albumin [6] and on Albumin [9] was 5.41 in each case. Moreover, the logD in data set [7] is 1.95. The compound further registered a lipophilicity (logP) in data set [8] of 5.11. The compound further yielded a pKa in [10] of 4.24.

With `CCCNC(=O)NS(=O)(=O)c1ccc(Cl)cc1` [CHLORPROPAMIDE], the inhibition at 12 µM in [1] is 28.5%; in [2], 26%; in [3], 19.2%; in data set [4], 18.5%.

As to `O=C(O)c1ccccc1Nc1cccc(C(F)(F)F)c1` [FLUFENAMIC ACID], the inhibition at 4 µM in [11] was found to be 24%; in [12] it was 73%. In addition, the “log Ks” value at Albumin [5] is 6.68. Moreover, the inhibition at 12 µM stood at 95.8% in data set [1], 91.2% in data set [2], 48.6% in data set [3] and 68.6% in [4].

With `CC(=O)Nc1nc(C)c(-c2cnc(F)c(NS(=O)(=O)c3sc(C)nc3C)c2)s1`, the inhibition at 100 µM turned out to be 6% in data set [13] and 7% in data set [14]. The solubility at 24 h in “physchem” is > 1700 µM. In addition, the “log Ks” value at Albumin [6] was 5.88; on Albumin [9], 5.62. In data set [10], the pKa was 4.71.

For `CN(C)c1cccc2c(S(=O)(=O)N(C)CC(=O)O)cccc12` [DANSYLSARCOSINE], the “log Ks” value at Albumin [5] came to 5.39.

For `CC(=O)CC(c1ccc([N+](=O)[O-])cc1)c1c(O)c2ccccc2oc1=O` (stereo not given) [ACENOCOUMAROL], the inhibition at 12 µM in data set [1] was 12.5%; in [2] it was 39%; in data set [3] it was 49.8%; in data set [4], 54.6%.

In the case of `NS(=O)(=O)c1cc2c(cc1Cl)N=CNS2(=O)=O` [CHLOROTHIAZIDE], the inhibition at 12 µM in data set [1] was 8%; in [2] it was 18.8%; in data set [3], 28.9%; in data set [4] it was 16%.
